Reference: the supplement of paper PMC10307832

Experiments:
Experiment in all cases: relative viability (nuclei count vs DMSO), 5 days (fraction); higher = more cells survive
[1] = compound: COc1nc(N)nc2c1ncn2[C@@H]1O[C@H](CO)[C@@H](O)[C@@H]1O [Nelarabine] + N=C(N)NC(=N)NCCc1ccccc1 [Phenformin] (partner 250 µM)
Outline: (§1)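 Lung cancer cell lines in 1536-well plates got either a single drug or a fixed anchor-drug dose together with five library-drug doses (not always all listed) in √10 steps, by pin tool, on the day after seeding. Nuclei were counted after 5 days, and relative viability is the treated-to-vehicle ratio of nuclei counts. Values are medians of duplicate plates.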

[2] = compound: C=CCn1c(=O)c2cnc(Nc3ccc(N4CCN(C)CC4)cc3)nc2n1-c1cccc(C(C)(C)O)n1 [Adavosertib] + CC1(C)CCC(c2ccc(Cl)cc2)=C(CN2CCN(c3ccc(C(=O)NS(=O)(=O)c4ccc(N[C@H](CCN5CCOCC5)CSc5ccccc5)c(S(=O)(=O)C(F)(F)F)c4)cc3)CC2)C1 [Navitoclax] (partner 0.5 µM)
Outline: as §1

[3] = compound: C=CCn1c(=O)c2cnc(Nc3ccc(N4CCN(C)CC4)cc3)nc2n1-c1cccc(C(C)(C)O)n1 [Adavosertib]
Outline: (§2)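 Viability is treated-well nuclei as a fraction of vehicle-well nuclei, reported as the median across plates. Before counting, lung cancer cell lines were kept overnight at 37 °C in 1536-well plates, pinned with five √10-spaced library-drug doses on vehicle-anchored plates, and left 5 days without medium change, then fixed, permeabilised and Hoechst-stained in one step, imaged at 4× and counted by MetaXpress. A plate passed only if control CV was below 25% and at least one doubling occurred.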

[4] = compound: COc1nc(N)nc2c1ncn2[C@@H]1O[C@H](CO)[C@@H](O)[C@@H]1O [Nelarabine]
Outline: as §2

Cell Line	relative viability ([1]; first compound 0.01 µM)	relative viability ([1]; first compound 0.03162 µM)	relative viability ([1]; first compound 0.1 µM)	relative viability ([1]; first compound 0.3162 µM)	relative viability ([1]; first compound 1 µM)	relative viability ([2]; first compound 0.01 µM)	relative viability ([2]; first compound 0.03162 µM)	relative viability ([2]; first compound 0.1 µM)	relative viability ([2]; first compound 0.3162 µM)	relative viability ([3]; 0.01 µM)	relative viability ([3]; 0.03162 µM)	relative viability ([3]; 0.1 µM)	relative viability ([3]; 0.3162 µM)	relative viability ([4]; 0.01 µM)	relative viability ([4]; 0.03162 µM)	relative viability ([4]; 0.1 µM)	relative viability ([4]; 0.3162 µM)	relative viability ([4]; 1 µM)
NCI-H647	0.641	0.301	0.631	0.501	0.427	1.15	1.17	1.12	0.985	1.03	1.04	0.918	0.669	1.29	0.916	1.07	1.14	0.997
NCI-H2009	0.555	0.518	0.479	0.532	0.47	1.14	1.18	1.21	1.23	1.02	1.01	1.07	1.02	1.23	1.07	1	1.02	1.03
NCI-H2228	0.434	0.244	–	0.345	0.293	0.691	1.41	0.885	0.305	0.994	0.996	0.946	0.616	1.17	0.991	–	1.35	0.948
NCI-H1395	0.487	0.401	0.474	0.455	0.423	1.15	1.17	1.25	0.986	0.83	0.901	0.887	0.775	0.997	0.821	1.02	0.928	0.842
LK-2	0.433	–	0.236	0.387	0.472	0.98	0.882	0.989	0.808	0.994	1.16	1.08	1.05	1.28	–	0.978	1.09	1.14
NCI-H520	0.811	0.343	0.638	0.806	0.513	1.12	1.1	1.09	0.791	0.948	0.876	1	0.879	1.2	1.02	1.1	0.941	1.01
CAL-12T	0.664	0.575	0.533	0.582	0.621	1.03	1.33	1.19	1.02	0.948	1.07	1.1	0.856	1.15	1.02	0.969	0.99	1.05
NCI-H460	1.35	0.648	0.646	0.611	0.482	0.942	1.18	1.45	0.861	1.03	1.01	1.02	1.08	1.24	1.09	1.01	1.2	1
NCI-H1944	0.209	0.195	0.229	0.195	0.203	1.05	1.02	1.07	1.02	0.953	0.926	0.959	0.807	1.15	0.984	1	0.987	0.869
NCI-H1437	0.304	0.309	0.318	0.302	0.325	1.05	1.13	1.16	1.11	1.02	0.912	1.03	0.981	1.21	0.989	0.994	1.04	0.918
A549	0.209	0.116	0.161	0.119	0.143	1.21	1.26	1.26	0.901	0.933	0.984	1	1.01	1.19	1.04	1.02	1	0.911
NCI-H2087	0.577	0.408	0.397	0.457	0.569	1.09	1.14	1.09	0.937	0.968	0.95	1.08	1.13	1.1	0.981	1.05	1.22	0.881
LU99A	0.88	0.767	0.837	0.864	0.854	0.895	0.733	0.901	0.652	1.03	0.977	0.894	0.924	0.965	0.952	0.956	0.946	1.07
NCI-H1993	0.527	0.486	0.448	0.499	0.503	1.02	0.977	1.01	0.934	0.9	0.996	0.925	1.1	1.03	0.863	1.02	0.959	0.987
NCI-H2347	0.45	0.574	0.379	0.445	0.381	0.811	0.804	0.954	0.791	1.06	1.05	1.09	0.983	1.13	0.904	1.04	1.02	1.01
NCI-H1734	0.446	0.388	0.412	0.366	0.38	0.866	0.818	0.877	0.821	1.03	0.972	1	0.676	1.16	0.96	0.997	1.02	1.05
HCC-44	0.194	0.157	0.173	0.167	0.185	1.02	1.01	1.01	1.06	0.927	0.987	0.971	0.984	1	0.949	0.997	0.947	0.867
LCLC-97TM1	0.506	0.446	0.339	0.426	0.42	–	0.372	0.473	0.257	0.955	1.02	1.11	0.71	0.939	–	0.971	0.95	0.878
